Assay results reported in patent US8871681B2, “Herbicidal compositions comprising 4-amino-3-chloro-5-fluoro-6-(4-chloro-2-fluoro-3-methoxyphenyl) pyridine-2-carboxylic acid or a derivative thereof and certain sulfonylureas” (Dow AgroSciences LLC, priority 2012, dated 2014).

How the values were obtained:
[1] = system: LEFCH (Leptochloa chinensis, Chinese sprangletop); test: Postemergence foliar-applied weed control, direct seeded rice, greenhouse (Example I); format: in vivo, Leptochloa chinensis (L.) Nees; settings: Dinebra chinensis, post-emergence, 576 h, 24 DAA, read-out: Visual Weed Control (%) Obs
Source text: (§1) Seeds or nutlets of the desired test plant species were planted in a soil matrix prepared by mixing a loam or sandy loam soil (e.g., 28.6 percent silt, 18.8 percent clay, and 52.6 percent sand, with a pH of about 5.8 and an organic matter content of about 1.8 percent) and calcareous grit in an 80 to 20 ratio. The soil matrix was contained in plastic pots with a volume of 1 quart and a surface area of 83.6 square centimeters (cm^2). When required to ensure good germination and healthy plants, a fungicide treatment and/or other chemical or physical treatment was applied. The plants were grown for 8-22 days in a greenhouse with an approximate 14 h photoperiod which was maintained at about 29° C. during the day and 26° C. during the night. Nutrients (Peters Excel® 15-5-15 5-Ca 2-Mg and iron chelate) were applied in the irrigation solution as needed and water was added on a regular basis. Supplemental lighting was provided with overhead metal halide 1000-Watt lamps as necessary. The plants were employed for testing when they reached the first through fourth true leaf stage.
(§2) Treatments consisted of the acid or esters of 4-amino-3-chloro-5-fluoro-6-(4-chloro-2-fluoro-3-methoxy-phenyl)pyridine-2-carboxylic acid (Compound A), each formulated as an SC, and various herbicidal components alone and in combination. Forms of compound A were applied on an acid equivalent basis.
(§3) Other herbicidal components were applied on an active ingredient basis and included acetolactate synthase (ALS)-inhibiting herbicides (sulfonylurea chemical class) azimsulfuron formulated as Gulliver®, bensulfuron-methyl formulated as Londax® 60DF, cyclosulfamuron (technical material), ethoxysulfuron formulated as Sunrice® 15 WDG, flazasulfuron formulated as Katana®, flucetosulfuron formulated as Sukedachi® 1KG G, foramsulfuron formulated as Option®, imazosulfuron formulated as Brazzos® WG, iodosulfuron-methyl-sodium formulated as Hussar®, metsulfuron-methyl formulated as Lorate®, nicosulfuron formulated as Accent®, orthosulfamuron formulated as Strada® WG, primisulfuron-methyl (technical material), propyrisulfuron formulated as Zeta One®, rimsulfuron formulated as Matrix® WG, sulfometuron-methyl formulated as Oust®, and trifloxysulfuron-sodium formulated as Monument® 75WG.
(§4) Treatment requirements were calculated based upon the rates being tested, the concentration of active ingredient or acid equivalent in the formulation, and a 12 mL application volume at a rate of 187 L/ha.
(§5) For treatments comprised of formulated compounds, measured amounts of compounds were placed individually in 25 mL glass vials and diluted in a volume of 1.25% (v/v) Agri-Dex® crop oil concentrated to obtain 12× stock solutions. […] Application solutions were prepared by adding an appropriate amount of each stock solution (e.g., 1 mL) and diluted to the appropriate final concentrations with the addition of 10 mL of an aqueous mixture of 1.25% (v/v) crop oil concentrate so that the final spray solutions contained 1.25+/−0.05% (v/v) Agrcrop oil concentrate.
(§6) For treatments comprised of formulated and technical compounds, weighed amounts of the technical materials were placed individually in 25 mL glass vials and dissolved in a volume of 97:3 v/v acetone/DMSO to obtain 12× stock solutions, and measured amounts of the formulated compounds were placed individually in 25 mL glass vials and diluted in a volume of 1.25% (v/v) crop oil concentrate to obtain 12× stock solutions. […] Application solutions were prepared by adding an appropriate amount of each stock solution (e.g., 1 mL) and diluted to the appropriate final concentrations with the addition of an appropriate amount of an aqueous mixture of 1.5% (v/v) crop oil concentrate so that the final spray solutions contained 1.25% (v/v) crop oil concentrate. […]

[2] = system: DIGSA (Digitaria sanguinalis, large crabgrass); test: as above; format: in vivo, Digitaria sanguinalis (L.) Scop.
Source text: as §1, §2, §3, §4, §5, §6

[3] = system: SCPMA (Bolboschoenus maritimus or Schoenoplectus maritimus, sea clubrush); test: In-water applied weed control, transplanted paddy rice, greenhouse (Example II); format: in vivo, Bolboschoenus maritimus (L.) Palla
Method in brief: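 Transplanted rice and weeds at first to fourth true leaf stage in flooded mud pots (2.5–3 cm water), greenhouse ~29/26 °C day/night. Herbicides alone or mixed, in 1.25% crop oil concentrate (acetone for technical material), injected into the flood; visual 0–100% injury after ~3 weeks, expected mixture effects by Colby.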

[4] = system: ECHCO (Echinochloa colona, junglerice); test: as above; format: in vivo, Echinochloa colona (L.) Link
Procedure: (§7) Weed seeds or nutlets of the desired test plant species were planted in puddled soil (mud) prepared by mixing a shredded, non-sterilized mineral soil (50.5 percent silt, 25.5 percent clay, and 24 percent sand, with a pH of about 7.6 and an organic matter content of about 2.9 percent) and water at a 1:1 volumetric ratio. The prepared mud was dispensed in 365 mL aliquots into 16-ounce (oz.) non-perforated plastic pots with a surface area of 86.59 square centimeters (cm^2) leaving a headspace of 3 centimeters (cm) in each pot. Rice seeds were planted in Sun Gro MetroMix® 306 planting mixture, which typically has a pH of 6.0 to 6.8 and an organic matter content of about 30 percent, in plastic plug trays. Seedlings at the second or third leaf stage of growth were transplanted into 860 mL of mud contained in 32-oz. non-perforated plastic pots with a surface area of 86.59 cm^2 4 days prior to herbicide application. The paddy was created by filling the headspace of the pots with 2.5 to 3 cm of water. When required to ensure good germination and healthy plants, a fungicide treatment and/or other chemical or physical treatment was applied. The plants were grown for 4-22 days in a greenhouse with an approximate 14 h photoperiod which was maintained at about 29′C during the day and 26° C. during the night. Nutrients were added as Osmocote® (19:6:12, N:P:K+minor nutrients) at 2 g per 16-oz. pot and 4 g per 32-oz. pot. Water was added on a regular basis to maintain the paddy flood, and supplemental lighting was provided with overhead metal halide 1000-Watt lamps as necessary. The plants were employed for testing when they reached the first through fourth true leaf stage.
(§8) Treatments consisted of the acid or esters of 4-amino-3-chloro-5-fluoro-6-(4-chloro-2-fluoro-3-methoxy-phenyl)pyridine-2-carboxylic acid (compound A) each formulated as an SC and various herbicidal components alone and in combination. Forms of compound A were applied on an acid equivalent basis.
(§9) Other herbicidal components were applied on an active ingredient basis and included acetolactate synthase (ALS)-inhibiting herbicides (sulfonylurea chemical class), azimsulfuron formulated as Gulliver®, bensulfuron-methyl formulated as Londax® 60DF, cyclosulfamuron (technical grade materail), ethoxysulfuron formulated as Sunrice® 15 WDG, flucetosulfuron formulated as Sukedachi® 1KG G, imazosulfuron formulated as Brazzos®, metsulfuron-methyl formulated as Lorate®, nicosulfuron formulated as Accent®, orthosulfamuron formulated as Strada® WG, propyrisulfuron formulated as Zeta One®, and rimsulfuron formulated as Matrix® WG.
(§10) Treatment requirements for each compound or herbicidal component were calculated based upon the rates being tested, the concentration of active ingredient or acid equivalent in the formulation, an application volume of 2 mL per component per pot, and an application area of 86.59 cm^2 per pot.
(§11) For formulated compounds, a measured amount was placed in an individual 100 or 200 mL glass vial and was dissolved in a volume of 1.25% (v/v) Agri-Dex® crop oil concentrate to obtain application solutions.
(§12) For technical grade compounds, a weighed amount was placed in an individual 100 to 200 mL glass vial and was dissolved in a volume of acetone to obtain concentrated stock solutions. […] The concentrated stock solutions obtained were diluted with an equivalent volume of an aqueous mixture containing 2.5% (v/v) crop oil concentrate so that the final application solutions contained 1.25% (v/v) crop oil concentrate.
(§13) Applications were made by injecting with a pipetter appropriate amounts of the application solutions, individually and sequentially, into the aqueous layer of the paddy. Control plants were treated in the same manner with the solvent blank. Applications were made so that all treated plant material received the same concentrations of acetone and crop oil concentrate. […]

[5] = system: BRAPP (Brachiaria platyphylla, broadleaf signalgrass); test: Postemergence foliar-applied weed control, direct seeded rice, greenhouse (Example I); format: in vivo, Brachiaria platyphylla (Griseb.) Nash; settings: Urochloa platyphylla, post-emergence, 504 h, 21 DAA, read-out: Visual Weed Control (%) Obs
Method in brief: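 Greenhouse-grown plants in loam/sandy loam–grit soil (14 h photoperiod, ~29/26 °C) were sprayed postemergence at the first to fourth true leaf stage. Compound A (acid equivalent basis) and ALS-inhibiting sulfonylureas (active ingredient basis) were applied alone and in combination in 1.25% (v/v) crop oil concentrate at 187 L/ha by track sprayer; controls received solvent blank.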

[6] = system: LEFCH (Leptochloa chinensis, Chinese sprangletop); test: In-water applied weed control, transplanted paddy rice, greenhouse (Example II); format: in vivo, Leptochloa chinensis (L.) Nees
Procedure: as §7, §8, §9, §10, §11, §12, §13

[7] = system: FIMMI (Fimbristylis miliacea, globe fringerush); test: as above; format: in vivo, Fimbristylis miliacea (L.) Vahl
Procedure: as §7, §8, §9, §10, §11, §12, §13

[8] = system: IPOHE (Ipomoea hederacea, ivyleaf morningglory); test: Postemergence foliar-applied weed control, direct seeded rice, greenhouse (Example I); format: in vivo, Ipomoea hederacea Jacq.; settings: 20 DAA
Source text: as §1, §2, §3, §4, §5, §6

[9] = system: CYPES (Cyperus esculentus, yellow nutsedge); test: as above; format: in vivo, Cyperus esculentus L.; settings: 20 DAA
Source text: as §1, §2, §3, §4, §5, §6

[10] = system: CYPRO (Cyperus rotundus, purple nutsedge); test: In-water applied weed control, transplanted paddy rice, greenhouse (Example II); format: in vivo, Cyperus rotundus L.
Procedure: as §7, §8, §9, §10, §11, §12, §13

[11] = system: ECHCG (Echinochloa crus-galli, barnyardgrass); test: as above; format: in vivo, Echinochloa crus-galli (L.) Beauv.
Procedure: as §7, §8, §9, §10, §11
For technical grade compounds, a weighed amount was placed in an individual 100 to 200 mL glass vial and was dissolved in a volume of acetone to obtain concentrated stock solutions. […]

COc1cc(OC)nc(NC(=O)NS(=O)(=O)c2c(Cl)nc3ccccn23)n1 [Imazosulfuron, 2-chloro-N-[[(4,6-dimethoxy-2-pyrimidinyl)amino]carbonyl]imidazo[1,2-a]pyridine-3-sulfonamide, reference compound]
pest or weed control at 21 g/ha ([1]; 21 gai/ha): 0%
pest or weed control at 42 g/ha ([1]; 42 gai/ha): 0%
pest or weed control at 84 g/ha ([1]; 84 gai/ha): 0%
Visual Weed Control (%) Obs ([2]; 24 DAA, 21 gai/ha): 0%
Visual Weed Control (%) Obs ([2]; 24 DAA, 42 gai/ha): 0%
Visual Weed Control (%) - 20 DAA SCPMA Obs ([3]; Table 38, 168 gai/ha alone): 65%
Visual Weed Control (%) - 20 DAA SCPMA Obs ([3]; Table 39, 168 gai/ha alone): 65%
Visual Weed Control (%) - 20 DAA SCPMA Obs ([3]; Table 40, 168 gai/ha alone): 65%
Visual Weed Control (%) - 21 DAA ECHCO Obs ([4]; Table 38, 22.5 gai/ha alone): 20%
Visual Weed Control (%) - 21 DAA ECHCO Obs ([4]; Table 38, 45 gai/ha alone): 20%
Visual Weed Control (%) - 21 DAA ECHCO Obs ([4]; Table 39, 45 gai/ha alone): 20%

CCCc1ccc2nc(Cl)c(S(=O)(=O)NC(=O)Nc3nc(OC)cc(OC)n3)n2n1 [Propyrisulfuron, 2-chloro-N-[[(4,6-dimethoxy-2-pyrimidinyl)amino]carbonyl]-6-propylimidazo[1,2-b]pyridazine-3-sulfonamide, reference compound]
pest or weed control at 11.25 g/ha ([5]; 11.25 gai/ha): 0%
pest or weed control at 22.5 g/ha ([5]; 22.5 gai/ha): 20%
pest or weed control at 45 g/ha ([5]; 45 gai/ha): 10%
Visual Weed Control (%) - 21 DAA SCPMA Obs ([3]; Table 48, 11.25 gai/ha alone): 80%
Visual Weed Control (%) - 21 DAA LEFCH Obs ([6]; Table 47, 22.5 gai/ha alone): 0%
Visual Weed Control (%) - 21 DAA LEFCH Obs ([6]; Table 47, 45 gai/ha alone): 0%
Visual Weed Control (%) - 21 DAA FIMMI Obs ([7]; Table 48, 11.25 gai/ha alone): 85%
Visual Weed Control (%) - 21 DAA FIMMI Obs ([7]; Table 48, 22.5 gai/ha alone): 88%
Visual Weed Control (%) - 21 DAA FIMMI Obs ([7]; Table 48, 45 gai/ha alone): 95%

CCS(=O)(=O)c1cccnc1S(=O)(=O)NC(=O)Nc1nc(OC)cc(OC)n1 [Rimsulfuron, N-[[(4,6-dimethoxy-2-pyrimidinyl)amino]carbonyl]-3-(ethylsulfonyl)-2-pyridinesulfonamide, reference compound]
Visual Weed Control (%) Obs ([8]; 4.38 gai/ha): 60%
Visual Weed Control (%) Obs ([8]; 8.75 gai/ha): 75%
Visual Weed Control (%) Obs ([2]; 20 DAA, 8.75 gai/ha): 70%
Visual Weed Control (%) Obs ([9]; 2.19 gai/ha): 0%
Visual Weed Control (%) Obs ([9]; 4.38 gai/ha): 0%
Visual Weed Control (%) Obs ([9]; 8.75 gai/ha): 60%
Visual Weed Control (%) - 20 DAA LEFCH Obs ([6]; Table 49, 4.38 gai/ha alone): 0%
Visual Weed Control (%) - 20 DAA LEFCH Obs ([6]; Table 50, 4.38 gai/ha alone): 0%
Visual Weed Control (%) - 20 DAA LEFCH Obs ([6]; Table 50, 8.75 gai/ha alone): 30%
Visual Weed Control (%) - 20 DAA CYPRO Obs ([10]; Table 49, 4.38 gai/ha alone): 0%
Visual Weed Control (%) - 20 DAA CYPRO Obs ([10]; Table 50, 4.38 gai/ha alone): 0%
Visual Weed Control (%) - 20 DAA ECHCG Obs ([11]; Table 50, 4.38 gai/ha alone): 0%
Visual Weed Control (%) - 20 DAA ECHCG Obs ([11]; Table 50, 8.75 gai/ha alone): 0%
